Measured values from ChEMBL document CHEMBL4507277.

Tests used:
[1] = molecular target: Receptor tyrosine-protein kinase erbB-4 (Homo sapiens) (UniProt Q15303); details: Compound concentration 1000.0 nM
[2] = molecular target: Serine/threonine-protein kinase PLK3 (Homo sapiens) (UniProt Q9H4B4); details: Compound concentration 1000.0 nM
[3] = molecular target: Casein kinase I isoform gamma-3 (Homo sapiens) (UniProt Q9Y6M4); details: Compound concentration 1000.0 nM
[4] = molecular target: Serine/threonine-protein kinase 33 (Homo sapiens) (UniProt Q9BYT3); details: Compound concentration 1000.0 nM
Sequence of Serine/threonine-protein kinase 33 (Homo sapiens) (Q9BYT3 whole entry, looked up): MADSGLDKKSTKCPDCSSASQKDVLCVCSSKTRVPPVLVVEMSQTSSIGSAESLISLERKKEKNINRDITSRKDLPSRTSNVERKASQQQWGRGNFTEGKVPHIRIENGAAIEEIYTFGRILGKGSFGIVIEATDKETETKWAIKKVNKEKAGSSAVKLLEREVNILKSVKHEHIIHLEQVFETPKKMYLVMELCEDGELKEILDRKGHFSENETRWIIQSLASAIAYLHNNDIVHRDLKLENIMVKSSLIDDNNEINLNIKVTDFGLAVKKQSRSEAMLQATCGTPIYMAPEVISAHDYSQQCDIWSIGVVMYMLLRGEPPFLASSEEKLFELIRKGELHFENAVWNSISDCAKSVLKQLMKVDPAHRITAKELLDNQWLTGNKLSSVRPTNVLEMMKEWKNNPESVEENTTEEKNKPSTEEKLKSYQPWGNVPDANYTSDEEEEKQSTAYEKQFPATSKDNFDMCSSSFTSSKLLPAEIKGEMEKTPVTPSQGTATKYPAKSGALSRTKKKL

[5] = molecular target: Receptor tyrosine-protein kinase erbB-2 (Homo sapiens) (UniProt P04626); details: Compound concentration 1000.0 nM
[6] = molecular target: Activin receptor type-1-like (Homo sapiens) (UniProt P37023); details: Compound concentration 1000.0 nM
[7] = molecular target: Ribosomal protein S6 kinase alpha-2 (Homo sapiens) (UniProt Q15349); details: Compound concentration 1000.0 nM
Sequence of Ribosomal protein S6 kinase alpha-2 (Homo sapiens) (Q15349 whole entry): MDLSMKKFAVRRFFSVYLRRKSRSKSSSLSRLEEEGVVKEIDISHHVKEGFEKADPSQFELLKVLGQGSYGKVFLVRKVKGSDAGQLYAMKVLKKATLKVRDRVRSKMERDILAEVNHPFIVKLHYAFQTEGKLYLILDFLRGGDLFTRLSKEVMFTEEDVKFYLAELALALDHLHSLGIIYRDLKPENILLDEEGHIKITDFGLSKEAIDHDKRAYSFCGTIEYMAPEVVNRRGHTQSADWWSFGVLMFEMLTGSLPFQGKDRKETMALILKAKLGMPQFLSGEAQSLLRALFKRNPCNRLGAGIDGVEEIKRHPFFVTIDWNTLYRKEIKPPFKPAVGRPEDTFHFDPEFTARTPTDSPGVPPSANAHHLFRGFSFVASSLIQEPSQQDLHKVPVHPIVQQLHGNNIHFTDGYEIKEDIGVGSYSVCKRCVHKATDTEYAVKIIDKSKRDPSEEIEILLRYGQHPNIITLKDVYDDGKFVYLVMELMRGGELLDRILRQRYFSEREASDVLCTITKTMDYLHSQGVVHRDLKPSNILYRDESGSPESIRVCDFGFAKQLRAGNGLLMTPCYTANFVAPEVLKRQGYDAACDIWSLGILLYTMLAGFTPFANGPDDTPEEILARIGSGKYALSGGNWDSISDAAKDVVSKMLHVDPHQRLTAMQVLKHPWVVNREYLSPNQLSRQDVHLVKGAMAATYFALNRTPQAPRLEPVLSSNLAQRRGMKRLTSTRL

[8] = molecular target: Citron Rho-interacting kinase (Homo sapiens) (UniProt O14578); details: Compound concentration 1000.0 nM
[9] = molecular target: Serine/threonine-protein kinase ULK2 (Homo sapiens) (UniProt Q8IYT8); details: Compound concentration 1000.0 nM
[10] = tested on: Hepatocyte growth factor receptor (Homo sapiens), P08581 [Y1235D]; details: Compound concentration 1000.0 nM
[11] = molecular target: Serine/threonine-protein kinase Nek1 (Homo sapiens) (UniProt Q96PY6); details: Compound concentration 1000.0 nM
[12] = molecular target: Casein kinase II subunit alpha (Homo sapiens) (UniProt P68400); details: Compound concentration 1000.0 nM
[13] = molecular target: Cyclin-dependent kinase 5 (Homo sapiens) (UniProt Q00535); details: Compound concentration 1000.0 nM
[14] = molecular target: Cyclin-dependent kinase 19 (Homo sapiens) (UniProt Q9BWU1); details: Compound concentration 1000.0 nM
[15] = molecular target: Serine/threonine-protein kinase WNK3 (Homo sapiens) (UniProt Q9BYP7); details: Compound concentration 1000.0 nM
[16] = tested on: Mast/stem cell growth factor receptor Kit (Homo sapiens), P10721 [L576P]; details: Compound concentration 1000.0 nM
[17] = molecular target: Serine/threonine-protein kinase PLK1 (Homo sapiens) (UniProt P53350); details: Compound concentration 1000.0 nM
[18] = molecular target: cGMP-dependent protein kinase 1 (Homo sapiens) (UniProt Q13976); details: Compound concentration 1000.0 nM
Sequence of cGMP-dependent protein kinase 1 (Homo sapiens) (Q13976 whole entry): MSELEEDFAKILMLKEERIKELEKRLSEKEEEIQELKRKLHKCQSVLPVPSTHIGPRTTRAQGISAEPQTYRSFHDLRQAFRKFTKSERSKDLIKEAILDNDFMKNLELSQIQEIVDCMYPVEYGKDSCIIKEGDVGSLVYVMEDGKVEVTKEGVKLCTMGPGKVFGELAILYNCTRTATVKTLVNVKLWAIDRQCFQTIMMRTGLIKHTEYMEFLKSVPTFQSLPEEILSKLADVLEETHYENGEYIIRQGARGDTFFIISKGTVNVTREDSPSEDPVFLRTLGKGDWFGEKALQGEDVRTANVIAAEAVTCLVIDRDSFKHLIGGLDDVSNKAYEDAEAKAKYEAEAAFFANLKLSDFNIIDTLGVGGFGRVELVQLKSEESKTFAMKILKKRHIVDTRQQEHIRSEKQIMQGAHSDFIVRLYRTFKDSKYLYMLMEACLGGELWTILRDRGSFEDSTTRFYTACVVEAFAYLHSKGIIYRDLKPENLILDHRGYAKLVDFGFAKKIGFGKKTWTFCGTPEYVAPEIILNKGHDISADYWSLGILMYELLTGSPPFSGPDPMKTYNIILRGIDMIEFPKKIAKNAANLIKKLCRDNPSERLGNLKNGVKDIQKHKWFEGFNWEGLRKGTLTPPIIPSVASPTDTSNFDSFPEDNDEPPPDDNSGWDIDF

[19] = molecular target: Tyrosine-protein kinase FRK (Homo sapiens) (UniProt P42685); details: Compound concentration 1000.0 nM
[20] = molecular target: Serine/threonine-protein kinase PAK 6 (Homo sapiens) (UniProt Q9NQU5); details: Compound concentration 1000.0 nM
[21] = molecular target: Mitogen-activated protein kinase 3 (Homo sapiens) (UniProt P27361); details: Compound concentration 1000.0 nM
[22] = molecular target: Serine/threonine-protein kinase B-raf (Homo sapiens) (UniProt P15056); details: Compound concentration 1000.0 nM
Sequence of Serine/threonine-protein kinase B-raf (Homo sapiens) (P15056 whole entry, the tested form may be a part): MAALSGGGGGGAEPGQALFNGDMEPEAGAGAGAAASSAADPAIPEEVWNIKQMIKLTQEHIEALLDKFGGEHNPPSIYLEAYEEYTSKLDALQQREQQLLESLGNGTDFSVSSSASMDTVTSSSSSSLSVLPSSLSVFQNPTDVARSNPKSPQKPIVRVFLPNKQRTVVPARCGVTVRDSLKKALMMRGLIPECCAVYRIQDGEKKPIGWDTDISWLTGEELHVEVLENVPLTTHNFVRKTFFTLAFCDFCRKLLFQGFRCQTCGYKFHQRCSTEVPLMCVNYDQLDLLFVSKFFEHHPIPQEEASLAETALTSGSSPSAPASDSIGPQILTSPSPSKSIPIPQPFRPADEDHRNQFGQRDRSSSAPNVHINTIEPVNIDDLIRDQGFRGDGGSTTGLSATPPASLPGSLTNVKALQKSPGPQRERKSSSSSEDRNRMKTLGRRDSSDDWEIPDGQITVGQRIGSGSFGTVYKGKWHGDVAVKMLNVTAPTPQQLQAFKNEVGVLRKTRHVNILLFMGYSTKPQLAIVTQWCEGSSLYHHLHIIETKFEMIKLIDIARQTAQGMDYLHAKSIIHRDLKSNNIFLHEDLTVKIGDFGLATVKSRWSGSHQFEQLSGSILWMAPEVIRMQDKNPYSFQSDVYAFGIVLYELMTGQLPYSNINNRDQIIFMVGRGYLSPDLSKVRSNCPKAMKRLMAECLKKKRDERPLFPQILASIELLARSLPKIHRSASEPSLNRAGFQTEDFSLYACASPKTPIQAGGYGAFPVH

[23] = molecular target: LIM domain kinase 1 (Homo sapiens) (UniProt P53667); details: Compound concentration 1000.0 nM
[24] = molecular target: Calcium/calmodulin-dependent protein kinase type 1G (Homo sapiens) (UniProt Q96NX5); details: Compound concentration 1000.0 nM
[25] = molecular target: Serine/threonine-protein kinase MAK (Homo sapiens) (UniProt P20794); details: Compound concentration 1000.0 nM
Sequence of Serine/threonine-protein kinase MAK (Homo sapiens) (P20794 whole entry): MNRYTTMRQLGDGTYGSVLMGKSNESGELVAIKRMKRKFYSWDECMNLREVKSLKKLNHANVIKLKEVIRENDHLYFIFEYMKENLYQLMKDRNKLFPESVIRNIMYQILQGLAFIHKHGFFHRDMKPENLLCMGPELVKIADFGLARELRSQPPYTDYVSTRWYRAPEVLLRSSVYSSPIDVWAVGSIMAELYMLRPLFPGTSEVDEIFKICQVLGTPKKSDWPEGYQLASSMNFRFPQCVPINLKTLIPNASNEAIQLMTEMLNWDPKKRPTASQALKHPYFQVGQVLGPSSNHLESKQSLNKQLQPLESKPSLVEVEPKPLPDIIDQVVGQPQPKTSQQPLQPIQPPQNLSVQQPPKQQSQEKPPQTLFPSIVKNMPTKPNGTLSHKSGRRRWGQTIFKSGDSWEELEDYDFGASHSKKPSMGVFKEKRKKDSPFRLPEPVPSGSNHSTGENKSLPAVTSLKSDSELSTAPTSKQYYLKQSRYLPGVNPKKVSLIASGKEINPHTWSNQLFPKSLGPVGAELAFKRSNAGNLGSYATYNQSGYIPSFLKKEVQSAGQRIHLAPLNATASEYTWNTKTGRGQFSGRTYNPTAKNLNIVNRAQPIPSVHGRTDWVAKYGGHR

[26] = molecular target: Casein kinase II subunit alpha' (Homo sapiens) (UniProt P19784); details: Compound concentration 1000.0 nM
[27] = molecular target: Phosphorylase b kinase regulatory subunit alpha, liver isoform (Homo sapiens) (UniProt P46019); details: Compound concentration 1000.0 nM
[28] = tested on: Tyrosine-protein kinase ABL1 (Homo sapiens), P00519 [M351T]; details: Compound concentration 1000.0 nM
[29] = molecular target: Serine/threonine-protein kinase VRK2 (Homo sapiens) (UniProt Q86Y07); details: Compound concentration 1000.0 nM
[30] = molecular target: Mitogen-activated protein kinase 11 (Homo sapiens) (UniProt Q15759); details: Compound concentration 1000.0 nM
Sequence of Mitogen-activated protein kinase 11 (Homo sapiens) (Q15759 whole entry): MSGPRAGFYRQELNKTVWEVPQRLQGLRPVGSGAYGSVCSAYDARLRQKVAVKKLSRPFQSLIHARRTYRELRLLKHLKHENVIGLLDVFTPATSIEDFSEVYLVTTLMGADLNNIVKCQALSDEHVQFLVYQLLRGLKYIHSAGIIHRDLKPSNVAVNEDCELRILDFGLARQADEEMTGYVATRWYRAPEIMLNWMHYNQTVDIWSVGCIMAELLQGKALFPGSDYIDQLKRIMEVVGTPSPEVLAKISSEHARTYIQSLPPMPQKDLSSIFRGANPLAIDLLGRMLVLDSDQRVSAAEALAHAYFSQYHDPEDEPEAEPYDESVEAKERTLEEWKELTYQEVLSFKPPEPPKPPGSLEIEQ

[31] = tested on: Epidermal growth factor receptor (Homo sapiens), P00533 [UNDEFINED MUTATION]; details: Compound concentration 1000.0 nM
[32] = molecular target: Homeodomain-interacting protein kinase 2 (Homo sapiens) (UniProt Q9H2X6); details: Compound concentration 1000.0 nM
[33] = molecular target: Calcium/calmodulin-dependent protein kinase type IV (Homo sapiens) (UniProt Q16566); details: Compound concentration 1000.0 nM
[34] = molecular target: MAP kinase-activated protein kinase 2 (Homo sapiens) (UniProt P49137); details: Compound concentration 1000.0 nM
[35] = molecular target: Tyrosine-protein kinase Fgr (Homo sapiens) (UniProt P09769); details: Compound concentration 1000.0 nM
[36] = molecular target: Serine/threonine-protein kinase RIO2 (Homo sapiens) (UniProt Q9BVS4); details: Compound concentration 1000.0 nM
[37] = molecular target: Cyclin-dependent kinase-like 3 (Homo sapiens) (UniProt Q8IVW4); details: Compound concentration 1000.0 nM
[38] = molecular target: Ribosomal protein S6 kinase alpha-1 (Homo sapiens) (UniProt Q15418); details: Compound concentration 1000.0 nM
[39] = molecular target: Serine/threonine-protein kinase D2 (Homo sapiens) (UniProt Q9BZL6); details: Compound concentration 1000.0 nM
[40] = molecular target: Interleukin-1 receptor-associated kinase 1 (Homo sapiens) (UniProt P51617); details: Compound concentration 1000.0 nM
Sequence of Interleukin-1 receptor-associated kinase 1 (Homo sapiens) (P51617 whole entry, looked up): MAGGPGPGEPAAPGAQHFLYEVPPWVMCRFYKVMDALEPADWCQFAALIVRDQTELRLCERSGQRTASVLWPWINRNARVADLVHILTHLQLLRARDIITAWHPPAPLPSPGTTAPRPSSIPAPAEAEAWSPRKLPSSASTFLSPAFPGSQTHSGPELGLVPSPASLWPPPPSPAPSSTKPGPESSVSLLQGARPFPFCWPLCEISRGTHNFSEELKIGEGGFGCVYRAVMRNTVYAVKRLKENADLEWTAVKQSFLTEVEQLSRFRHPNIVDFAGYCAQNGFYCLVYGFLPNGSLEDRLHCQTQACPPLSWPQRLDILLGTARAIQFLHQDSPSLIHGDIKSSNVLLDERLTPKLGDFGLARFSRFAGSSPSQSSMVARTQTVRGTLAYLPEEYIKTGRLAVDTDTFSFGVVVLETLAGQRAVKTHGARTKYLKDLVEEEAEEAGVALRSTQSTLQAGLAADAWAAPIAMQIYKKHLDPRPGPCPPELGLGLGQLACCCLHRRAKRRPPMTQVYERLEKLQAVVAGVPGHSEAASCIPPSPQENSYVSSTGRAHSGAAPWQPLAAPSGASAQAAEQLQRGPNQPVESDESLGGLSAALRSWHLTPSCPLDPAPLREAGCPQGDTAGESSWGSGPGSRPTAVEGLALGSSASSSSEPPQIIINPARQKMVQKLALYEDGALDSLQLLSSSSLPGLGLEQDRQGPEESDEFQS

[41] = molecular target: Protein kinase C delta type (Homo sapiens) (UniProt Q05655); details: Compound concentration 1000.0 nM
[42] = molecular target: Sodium-dependent dopamine transporter (Homo sapiens) (UniProt Q01959); details: Compound concentration 10.0 uM
[43] = molecular target: Calcium/calmodulin-dependent protein kinase type II subunit alpha (Homo sapiens) (UniProt Q9UQM7); details: Compound concentration 1000.0 nM
[44] = molecular target: Dual specificity tyrosine-phosphorylation-regulated kinase 2 (Homo sapiens) (UniProt Q92630); details: Compound concentration 1000.0 nM
Sequence of Dual specificity tyrosine-phosphorylation-regulated kinase 2 (Homo sapiens) (Q92630 whole entry): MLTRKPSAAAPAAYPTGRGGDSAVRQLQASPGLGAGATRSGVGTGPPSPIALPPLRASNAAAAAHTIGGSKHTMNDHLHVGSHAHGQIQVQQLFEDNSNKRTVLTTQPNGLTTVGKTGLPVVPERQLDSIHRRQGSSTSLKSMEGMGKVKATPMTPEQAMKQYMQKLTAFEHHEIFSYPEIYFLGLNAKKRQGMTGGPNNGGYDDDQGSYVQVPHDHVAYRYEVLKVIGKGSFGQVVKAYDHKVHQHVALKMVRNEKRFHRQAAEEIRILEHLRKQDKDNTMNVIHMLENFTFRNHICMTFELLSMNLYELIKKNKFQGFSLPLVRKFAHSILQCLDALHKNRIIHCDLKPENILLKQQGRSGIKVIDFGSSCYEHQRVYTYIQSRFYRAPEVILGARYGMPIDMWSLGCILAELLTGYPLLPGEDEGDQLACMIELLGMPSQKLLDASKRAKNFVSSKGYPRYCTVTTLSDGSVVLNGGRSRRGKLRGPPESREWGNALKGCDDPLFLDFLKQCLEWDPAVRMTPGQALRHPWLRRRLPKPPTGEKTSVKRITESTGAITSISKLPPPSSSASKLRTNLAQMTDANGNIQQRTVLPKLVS

[45] = molecular target: Calcium/calmodulin-dependent protein kinase kinase 2 (Homo sapiens) (UniProt Q96RR4); details: Compound concentration 1000.0 nM

CCS(=O)(=O)c1cc2cc(C[C@](O)(CC(C)(C)c3ccc(F)cc3C(N)=O)C(F)(F)F)[nH]c2cn1
inactive: residual activity [1] 100% | residual activity [2] 93% | residual activity [3] 100% | residual activity [4] 97% | residual activity [5] 100% | residual activity [6] 100% | residual activity [7] 100% | residual activity [8] 100% | residual activity [9] 100% | residual activity [10] 100% | residual activity [12] 100% | residual activity [13] 100% | residual activity [14] 100% | residual activity [15] 100% | residual activity [16] 83% | residual activity [17] 100% | residual activity [18] 92% | residual activity [19] 80% | residual activity [20] 100% | residual activity [21] 93% | residual activity [22] 100% | residual activity [23] 100% | residual activity [24] 100% | residual activity [25] 100% | residual activity [26] 92% | residual activity [27] 100% | residual activity [28] 94% | residual activity [29] 100% | residual activity [30] 100% | residual activity [31] 93% | residual activity [32] 100% | residual activity [33] 100% | residual activity [34] 100% | residual activity [35] 100% | residual activity [36] 100% | residual activity [37] 100% | residual activity [38] 100% | residual activity [39] 96% | residual activity [40] 99% | residual activity [41] 100% | inhibition [42] -8.67% | residual activity [43] 94% | residual activity [44] 92% | residual activity [45] 100%
active: residual activity [11] 45%

CCS(=O)(=O)c1cc2cc(C[C@@](O)(CC(C)(C)c3ccc(F)cc3C(N)=O)C(F)(F)F)[nH]c2cn1
inactive: residual activity [1] 100% | residual activity [2] 99% | residual activity [3] 100% | residual activity [4] 91% | residual activity [5] 100% | residual activity [6] 100% | residual activity [7] 80% | residual activity [8] 96% | residual activity [9] 85% | residual activity [10] 100% | residual activity [11] 53% | residual activity [12] 75% | residual activity [13] 100% | residual activity [14] 100% | residual activity [15] 100% | residual activity [16] 100% | residual activity [17] 85% | residual activity [18] 89% | residual activity [19] 100% | residual activity [20] 77% | residual activity [21] 98% | residual activity [22] 69% | residual activity [23] 100% | residual activity [24] 100% | residual activity [25] 100% | residual activity [26] 83% | residual activity [27] 100% | residual activity [28] 96% | residual activity [29] 80% | residual activity [30] 100% | residual activity [31] 79% | residual activity [32] 100% | residual activity [33] 100% | residual activity [34] 100% | residual activity [35] 88% | residual activity [36] 95% | residual activity [37] 90% | residual activity [38] 100% | residual activity [39] 89% | residual activity [40] 80% | residual activity [41] 99% | inhibition [42] 2.58% | residual activity [43] 100% | residual activity [44] 83% | residual activity [45] 56%
